Data from patent US5063203A, “Method of preventing or treating thrombosis using kappa-caseinoglycopeptide as active ingredient” (Centre National de la Recherche Scientifique (CNRS), priority 1989, dated 1991).
Values joined by “and” are separate entries in the source; they are usually repeats but may differ in a detail not shown here. Equal values may be shown once. “Also recorded” adds a separate entry of the source.

Assays:
[1] = tested on: blood-platelets; settings: literature, fragments of cow's CGP; cited from earlier work
[2] = tested on: blood-platelets; settings: literature, fragments of cow's CGP; same concentrations as the undecapeptide; cited from earlier work
[3] = tested on: human blood-platelets; assay: aggregation of human blood-platelets caused by ADP; format: cell-based; design: key to Aggregation with ADP, concentration which induces 50% inhibition: --: No inhibition
Text: (§1) More precisely, its activity upon the blood-platelet functions has been studied in vitro in relation to the inhibition of the aggregation of blood-platelets caused by ADP ("aggregation with ADP"), in relation to the inhibition of the attachment of fibrinogen to the blood-platelets caused by ADP ("attachment of fibrinogen with ADP"), in relation to the inhibition of the aggregation of blood-platelets caused by thrombin ("aggregation with thrombin") and in relation to the inhibition of the reaction caused by thrombin ("secretion reaction with thrombin") that is to say the release of one of the constituents of the dense granule (serotonin), evidence of blood-platelet activation.
(§2) These three products (κ-casein, κ-paracasein and CGP) have been tested upon the aggregation of human blood-platelets by ADP and by thrombin, upon the fixing of fibrinogen in the presence of ADP, and on the secretion reaction.

[4] = tested on: human blood-platelets; assay: attachment of fibrinogen to the blood-platelets caused by ADP; format: cell-based; settings: CGP at 250 μM
Text: as §1, §2

[5] = tested on: human blood-platelets; assay: aggregation of human blood-platelets caused by thrombin; format: cell-based
Text: as §1, §2

[6] = tested on: human blood-platelets; assay: secretion reaction with thrombin (release of serotonin from the dense granule); format: cell-based
Text: as §1, §2

heptapeptide containing the residues 106→112: fragment 106→112 of cow's κ-caseinoglycopeptide, by trypsin digestion of CGP or by synthesis (MAIPPKK; UniProt P02668 127-133, looked up, fragment)
inhibition of blood-platelet aggregation in vitro [1]: non-inhibiting
inhibition of the attachment of fibrinogen to the blood-platelets in vitro [2]: none of these peptides inhibit

tetrapeptide containing the residues 113→116: fragment 113→116 of cow's κ-caseinoglycopeptide, by trypsin digestion of CGP or by synthesis (NQDK; UniProt P02668 134-137, looked up, fragment)
inhibition of blood-platelet aggregation in vitro [1]: inhibits only very slightly
inhibition of the attachment of fibrinogen to the blood-platelets in vitro [2]: none of these peptides inhibit

κ-casein: cow's milk protein that under chymosin yields κ-paracasein and CGP; comparator
CI50, aggregation with ADP [3]: inactive; also recorded: inhibits neither
Aggregation with ADP, concentration which induces 50% inhibition ([3]; Table II): --
inhibition of fibrinogen attachment with ADP [4]: inhibits neither
IC50 ([5]; Table II, read-out: Aggregation with thrombin, concentration which induces 50% inhibition): 10 µM
IC50 ([5]; read-out: CI50, aggregation with thrombin): 10 µM and ~10 µM
IC50 ([6]; Table II, read-out: Secretion reaction with thrombin, concentration which induces 50% inhibition): 10 µM
IC50 ([6]; read-out: CI50, secretion reaction with thrombin): 10 µM and ~10 µM
